{"source": "patent US20220401564A1", "about": "(DANA-FARBER CANCER INSTITUTE, INC., priority 2019, published 2022)", "key": {"VHL": {"molecular_target": "T1, VHL (Homo sapiens, UniProt P40337)", "T1 construct": "Cells stably expressing the BRD4BD2-GFP with mCherry reporter (40) were seeded; endogenous in cells", "T1 sequence (P40337 whole entry, species assumed)": "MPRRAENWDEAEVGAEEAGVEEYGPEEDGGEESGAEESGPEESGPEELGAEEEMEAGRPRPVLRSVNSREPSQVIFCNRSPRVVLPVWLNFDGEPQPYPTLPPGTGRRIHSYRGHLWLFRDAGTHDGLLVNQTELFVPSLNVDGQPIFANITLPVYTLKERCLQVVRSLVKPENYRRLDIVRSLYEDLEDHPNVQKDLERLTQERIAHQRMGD", "experiment": "Cellular VHL engagement assay (BRD4BD2-GFP / mCherry reporter cells)", "format": "cell-based", "conditions": "with 250 nM AT1, 5 h", "procedure": "Cells stably expressing the BRD4BD2-GFP with mCherry reporter (40) were seeded at 30-50% confluency in 384-well plates with 50 μL per well of FluoroBrite™ DMEM media (Thermo Fisher Scientific, A18967) supplemented with 10% FBS a day before compound treatment. Compounds and 250 nM AT1((2S,4R)-1-(2R)-2-Acetamido-3-[[6-[2-[(6S)-4-(4-chlorophenyl)-2,3,9-trimethyl-6H-thieno[3,2-f][1,2,4]triazolo[4,3-a][1,4]diazepin-6-yl]acetamido]hexyl]thio]-3-methylbutanoyl]-4-hydroxy-N-[4-(4-methylthiazol-5-yl)benzyl)pyrrolidinine-2-carboxamide) were dispensed using a D300e Digital Dispenser (HP), normalized to 0.5% DMSO, and incubated with the cells for 5 h. The assay plate was imaged immediately using an Acumen® High Content Imager (TTP Labtech) with 488 nm and 561 nm lasers in a […] grid per well format. The resulting images were analyzed using CellProfiler™.\nA series of image analysis steps (an ‘image analysis pipeline’) was constructed. First, the red and green channels were aligned and cropped to target the middle of each well (to avoid analysis of the heavily clumped cells at the edges). A background illumination function was calculated for both red and green channels of each well individually and subtracted to correct for illumination variations across the 384-well plate from various sources of error. An additional step was then applied to the green channel to suppress the analysis of large auto fluorescent artifacts and enhance the analysis of cell specific fluorescence by way of selecting for objects under a given size (30 A.U.) and with a given shape (speckles). mCherry-positive cells were then identified in the red channel by filtering for objects 8-60 pixels in diameter and by using intensity to distinguish between clumped objects. The green channel was then segmented into GFP positive and negative areas and objects were labeled as GFP positive if at least 40% of it overlapped with a GFP positive area. The fraction of GFP-positive cells/mCherry-positive cells in each well was then calculated, and the green and red images were rescaled for visualization."}, "HDAC3": {"molecular_target": "HDAC3 (Homo sapiens, UniProt O15379)", "sequence (O15379 whole entry)": "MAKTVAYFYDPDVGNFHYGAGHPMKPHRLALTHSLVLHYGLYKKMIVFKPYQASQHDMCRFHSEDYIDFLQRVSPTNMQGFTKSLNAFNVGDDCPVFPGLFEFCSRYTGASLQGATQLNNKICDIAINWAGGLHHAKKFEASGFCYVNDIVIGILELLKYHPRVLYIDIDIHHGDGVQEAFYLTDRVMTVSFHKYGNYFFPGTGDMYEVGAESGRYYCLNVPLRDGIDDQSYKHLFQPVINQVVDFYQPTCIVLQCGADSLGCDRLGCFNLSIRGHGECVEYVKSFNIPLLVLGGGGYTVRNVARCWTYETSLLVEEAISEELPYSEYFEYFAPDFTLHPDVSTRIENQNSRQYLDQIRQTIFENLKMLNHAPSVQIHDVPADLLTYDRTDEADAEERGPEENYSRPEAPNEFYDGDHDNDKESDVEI", "experiment": "Change in cellular protein abundance (TMT proteomics) in Kelly cells", "format": "cell-based", "parameters": "relative change in relative protein abundance with treatment of Kelly cells; endogenous in cells; host or cells: Kelly cells", "conditions": "scatter plots FIG. 1 and FIG. 3", "procedure": "Lysis buffer (8 M Urea, 50 mM NaCl, 50 mM 4-(2hydroxyethyl)-1-piperazineethanesulfonic acid (EPPS) pH 8.5, protease and phosphatase inhibitors from Roche®) were added to the cell pellets and homogenized by 20 passes through a 21 gauge (1.25 in. long) needle to achieve a cell lysate with a protein concentration between 1-4 mg mL-1. A micro-BCA assay (Pierce™) was used to determine the final protein concentration in the cell lysate. 200 μg of protein for each sample were reduced and alkylated as described in Donovan et al., Elife 7:e38430 (2018).\nProteins were precipitated using methanol/chloroform. Four volumes of methanol were added to the cell lysate, followed by one volume of chloroform, and finally three volumes of water. The mixture was vortexed and centrifuged to separate the chloroform phase from the aqueous phase. The precipitated protein was washed with three volumes of methanol, centrifuged and the resulting washed precipitated protein was allowed to air dry. The precipitated protein was resuspended in 4 M Urea, 50 mM HEPES pH 7.4, followed by dilution to 1 M urea with the addition of 200 mM EPPS, pH 8. Proteins were first digested with LysC (1:50; enzyme:protein) for 12 hours at room temperature. The LysC digestion was diluted to 0.5 M Urea with 200 mM EPPS pH 8 followed by digestion with trypsin (1:50; enzyme:protein) for 6 hours at 37° C. Tandem mass tag (TMT) reagents (Thermo Fisher Scientific) were dissolved in anhydrous acetonitrile (ACN) according to manufacturer's instructions.\nAnhydrous ACN was added to each peptide sample to a final concentration of 30% v/v, and labeling was induced with the addition of TMT reagent to each sample at a ratio of 1:4 peptide:TMT label. The 10-plex labeling reactions were performed for 1.5 hours at room temperature and the reaction quenched by the addition of hydroxylamine to a final concentration of 0.3% for 15 minutes at room temperature. The sample channels were combined at a 1:1:1:1:1:1:1:1:1:1:1 ratio, desalted using Cis solid phase extraction cartridges (Waters®) and analyzed by LC-MS for channel ratio comparison. Samples were then combined using the adjusted volumes determined in the channel ratio analysis and dried down in a speed vacuum. The combined sample was then resuspended in 1% formic acid, and acidified (pH 2-3) before being subjected to desalting with C18 SPE (Sep-Pak®, Waters®). Samples were then offline fractionated into 96 fractions by high pH reverse-phase HPLC (Agilent® LC1260) through an aeris peptide xb-c18 column (Phenomenex®) with mobile phase A containing 5% acetonitrile and 10 mM NH4HCO3 in LC-MS grade H2O, and mobile phase B containing 90% acetonitrile and 10 mM NH4HCO3 in LC-MS grade H2O (both pH 8.0). The 96 resulting fractions were then pooled in a non-continuous manner into 24 fractions and these fractions were used for subsequent mass spectrometry analysis.\nData were collected using an Orbitrap Fusion™ Lumos™ mass spectrometer (Thermo Fisher Scientific, San Jose, Calif., USA) coupled with a Proxeon EASY-nLC™ 1200 LC pump (Thermo Fisher Scientific). Peptides were separated on an EasySpray™ ES803 75 μm inner diameter microcapillary column (ThermoFisher Scientific).\nEach analysis used an MS3-based TMT method as described previously. The data were acquired using a mass range of m z 340-1350, resolution 120,000, automatic gain control (AGC) target 1×10^6, maximum injection time 100 ms, dynamic exclusion of 120 seconds for the peptide measurements in the Orbitrap Fusion™ Lumos™ mass spectrometer. Data dependent MS2 spectra were acquired in the ion trap with a normalized collision energy (NCE) set at 55%, AGC target set to 1.5×10^5 and a maximum injection time of 150 ms. […]"}}}
{"smiles": "Cc1ncsc1-c1ccc([C@H](C)NC(=O)[C@@H]2C[C@@H](O)CN2C(=O)[C@@H](NC(=O)CCOCCOCCOCCN(CCc2c[nH]c3ccccc23)Cc2ccc(/C=C/C(=O)NO)cc2)C(C)(C)C)cc1", "note": "[Compound 3, (2S,4R)-1-((S)-17-(tert-butyl)-3-(4-((E)-3-(hydroxyamino)-3-oxoprop-1-en-1-yl)benzyl)-1-(1H-indol-3-yl)-15-oxo-6,9,12-trioxa-3,16-diazaoctadecan-18-oyl)-4-hydroxy-N—((S)-1-(4-(4-methylthiazol-5-yl)phenyl)ethyl)pyrrolidine-2-carboxamide]", "values": [{"measurement": "IC50", "setting": "VHL", "value": 15.1, "unit": "µM"}, {"measurement": "HDAC3 protein levels, relative protein abundance compared to DMSO control", "setting": "HDAC3", "value": "significant and selective reduction"}]}
{"smiles": "Cc1ncsc1-c1ccc([C@H](C)NC(=O)[C@@H]2C[C@@H](O)CN2C(=O)[C@@H](NC(=O)CCOCCOCCOCCOCCN(CCc2c[nH]c3ccccc23)Cc2ccc(/C=C/C(=O)NO)cc2)C(C)(C)C)cc1", "note": "[Compound 4]", "values": [{"measurement": "IC50", "setting": "VHL", "value": 22.9, "unit": "µM"}]}
{"smiles": "Cc1ncsc1-c1ccc([C@H](C)NC(=O)[C@@H]2C[C@@H](O)CN2C(=O)[C@@H](NC(=O)CCOCCOCCOCCOCCOCCN(CCc2c[nH]c3ccccc23)Cc2ccc(/C=C/C(=O)NO)cc2)C(C)(C)C)cc1", "note": "[Compound 5, (2S,4R)-1-((S)-23-(tert-butyl)-3-(4-((E)-3-(hydroxyamino)-3-oxoprop-1-en-1-yl)benzyl)-1-(1H-indol-3-yl)-21-oxo-6,9,12,15,18-pentaoxa-3,22-diazatetracosan-24-oyl)-4-hydroxy-N—((S)-1-(4-(4-methylthiazol-5-yl)phenyl)ethyl)pyrrolidine-2-carboxamide]", "values": [{"measurement": "IC50", "setting": "VHL", "value": 19.3, "unit": "µM"}, {"measurement": "HDAC3 protein levels, relative protein abundance compared to DMSO control", "setting": "HDAC3", "value": "significant and selective reduction"}]}
{"smiles": "Cc1ncsc1-c1ccc(CNC(=O)[C@@H]2C[C@@H](O)CN2C(=O)[C@@H](NC(=O)C2(F)CC2)C(C)(C)C)c(OCCOCCOCCN(CCc2c[nH]c3ccccc23)Cc2ccc(/C=C/C(=O)NO)cc2)c1", "note": "[Compound 8, (2S,4R)—N-(2-(2-(2-(2-((2-(1H-indol-3-yl)ethyl)(4-((E)-3-(hydroxyamino)-3-oxoprop-1-en-1-yl)benzyl)amino)ethoxy)ethoxy)ethoxy)-4-(4-methylthiazol-5-yl)benzyl)-1-((S)-2-(1-fluorocyclopropane-1-carboxamido)-3,3-dimethylbutanoyl)-4-hydroxypyrrolidine-2-carboxamide]", "values": [{"measurement": "IC50", "setting": "VHL", "value": 10.1, "unit": "µM"}]}
{"smiles": "Cc1ncsc1-c1ccc([C@H](C)NC(=O)[C@@H]2C[C@@H](O)CN2C(=O)[C@@H](NC(=O)CCOCCOCCN(CCc2c[nH]c3ccccc23)Cc2ccc(/C=C/C(=O)Nc3ccccc3N)cc2)C(C)(C)C)cc1", "note": "[Compound 10]", "values": [{"measurement": "IC50", "setting": "VHL", "value": 9, "unit": "µM"}, {"measurement": "HDAC3 protein levels, relative protein abundance compared to DMSO control", "setting": "HDAC3", "value": "significant and selective reduction"}]}
{"smiles": "Cc1ncsc1-c1ccc([C@H](C)NC(=O)[C@@H]2C[C@@H](O)CN2C(=O)[C@@H](NC(=O)CCOCCOCCOCCN(CCc2c[nH]c3ccccc23)Cc2ccc(/C=C/C(=O)Nc3ccccc3N)cc2)C(C)(C)C)cc1", "note": "[Compound 11, (2S,4R)-1-((S)-3-(4-((E)-3-((2-aminophenyl)amino)-3-oxoprop-1-en-1-yl)benzyl)-17-(tert-butyl)-1-(1H-indol-3-yl)-15-oxo-6,9,12-trioxa-3,16-diazaoctadecan-18-oyl)-4-hydroxy-N—((S)-1-(4-(4-methylthiazol-5-yl)phenyl)ethyl)pyrrolidine-2-carboxamide]", "values": [{"measurement": "HDAC3 protein levels, relative protein abundance compared to DMSO control", "setting": "HDAC3", "value": "significant and selective reduction"}]}
{"smiles": "Cc1ncsc1-c1ccc([C@H](C)NC(=O)[C@@H]2C[C@@H](O)CN2C(=O)[C@@H](NC(=O)CCOCCOCCOCCOCCN(CCc2c[nH]c3ccccc23)Cc2ccc(/C=C/C(=O)Nc3ccccc3N)cc2)C(C)(C)C)cc1", "note": "[Compound 12, (2S,4R)-1-((S)-3-(4-((E)-3-((2-aminophenyl)amino)-3-oxoprop-1-en-1-yl)benzyl)-20-(tert-butyl)-1-(1H-indol-3-yl)-18-oxo-6,9,12,15-tetraoxa-3,19-diazahenicosan-21-oyl)-4-hydroxy-N—((S)-1-(4-(4-methylthiazol-5-yl)phenyl)ethyl)pyrrolidine-2-carboxamide]", "values": [{"measurement": "HDAC3 protein levels, relative protein abundance compared to DMSO control", "setting": "HDAC3", "value": "significant and selective reduction"}]}
